Test results published in patent US20050255084A1, “Use of a half-transporter protein of the abcg-family for selecting cells and in gene therapy” (SOLVO BIOTECHNOLOGY, priority 2001, published 2005).
Values after ≈ are worked out from the molar mass of the structure shown.

Columns and labels:
[1] = test system: ABCG2-R (wild-type ABCG2); experiment: Cytotoxicity assay (cell survival after 4 days), wild-type ABCG2; type: cell-based; settings: human, PLB985 cells expressing ABCG2-R (wild-type ABCG2), selected by 10 nM MX
Description: (§1) Panel C: Cytotoxicity assay (cell survival after 4 days) of PLB985 cells expressing the ABCG2 variants. • ∘: Control, mock-transduced PLB985s; • Δ: PLB985s expressing ABCG2-R, selected by 10 nM MX; • ◯: PLB985s expressing ABCG2-G, selected by 100 nM MX.
(§2) This assay was performed in 24-well plates, cells seeded at a density of 200,000 cells/well. Cytotoxic drugs were added at the concentrations indicated and the cells were cultured for 4 days at 37° C. Total and live cell numbers were determined by flow cytometry after the addition of 2 μg/ml propidium-iodide, to identify dead cells.

[2] = Cytotoxicity assay (cell survival after 4 days), vector control; type: cell-based; settings: human, mock-transduced (vector control) PLB985 cells
Description: as §1, §2

ABCG2-G (R482G ABCG2) = experiment: Cytotoxicity assay (cell survival after 4 days), R482G ABCG2; type: cell-based; settings: human, PLB985 cells expressing ABCG2-G (R482G ABCG2), selected by 100 nM MX
Description: as §1, §2

[3] = test system: mock-transduced PLB985 X-CGD cells; experiment: Mitoxantrone uptake assay, mock-transduced cells; type: cell-based, human; settings: 10 μM FTC, 5 μM MX
Description: Cells were suspended in phenol red-free Hank's balanced salt solution, with additional pH stabilization by 20 mM phosphate buffer. Aliquots of the suspension, containing 3×10^5 cells, were incubated with or without the addition of 5 μM MX, and also with 5 μM MX+10 μM FTC, a specific inhibitor of ABCG2 (Rabindran et al., 2000; van Loevezijn et al., 2001). After one hour incubation at 37° C., the cells were washed with ice-cold medium, resuspended in ice-cold medium containing 21 g/ml propidium-iodide, and stored on ice until analysis by flow cytometry. Cellular MX values were determined at 635 nm excitation/661 nm emission wavelengths.

ABCG2-R = ABCG2-R (Homo sapiens, UniProt Q9UNQ0); settings: 10 μM FTC, 5 μM MX; ABCG2-R cells selected by 10 nM MX
Description: (§3) Panel B: Flow cytometry detection of mitoxantrone uptake (dotted lines: autofluorescence, solid thick lines: MX fluorescence, solid thin lines: MX fluorescence in the presence of the ABCG2-inhibitor, FTC). Part 1: Mock-transduced PLB985s; Part 2: PLB985s expressing ABCG2-R, selected by 10 nM MX; Part 3: PLB985s expressing ABCG2-G, selected by 100 nM MX.
(§4) Functional detection of ABCG2 expression was evaluated with a modified MX uptake assay of Robey et al. (Robey et al., 2001). Cells were suspended in phenol red-free Hank's balanced salt solution, with additional pH stabilization by 20 mM phosphate buffer. Aliquots of the suspension, containing 3×10^5 cells, were incubated with or without the addition of 5 μM MX, and also with 5 μM MX+10 μM FTC, a specific inhibitor of ABCG2 (Rabindran et al., 2000; van Loevezijn et al., 2001). After one hour incubation at 37° C., the cells were washed with ice-cold medium, resuspended in ice-cold medium containing 21 µg/ml propidium-iodide, and stored on ice until analysis by flow cytometry. Cellular MX values were determined at 635 nm excitation/661 nm emission wavelengths.

ABCG2-G [4] = molecular target: T1, ABCG2-G (Homo sapiens, UniProt Q9UNQ0, R482G); settings: 10 μM FTC, 5 μM MX; ABCG2-G cells selected by 100 nM MX
Description: as §3, §4

ABCG2-G [5] = molecular target: T1, ABCG2-G; settings: 10 μM FTC, 5 μM MX; transduced cells pre-selected with 10 nM MX
Description: as §4

[6] = test system: mouse X-CGD KO -/- bone marrow cells; experiment: Cytotoxicity assay on mouse bone marrow cells; type: cell-based
Description: FIG. 8. Panel A Cytotoxicity assay (cell survival after four days) on transduced mouse X-CGD KO −/− bone marrow cells • ♦Control, non transduced cells • ▪Cells tranduced by SPsAGS vector carrying cDNA of ABCG2-G, unselected, • ▴Cells tranduced by SPsATS vector carrying cDNA of ABCG2-T, unselected.
as §2
(§5) Drug selection of the transduced cells, cytotoxic assay, immunodetection of gp91^phox, nitroblue tetrazolium test (NBT) were performed similar as in human CD34+ cells except using murine cytokines. In the colony assay 10 000 cells were plated in semisolid medium containing 0, 5 and 10 nM MX.

[7] = test system: human cord blood CD34+ cells; experiment: Suspension culture granulocyte differentiation with MX selection; type: cell-based; settings: 5 nM MX selection
Source text: (§6) Transduced PLB985 cells were selected by stepwise increases in mitoxantrone or doxorubicin (DOX; other name: adriamycin) concentrations. Selection was started 5 days (in some cases: 7 days) after transduction; each drug concentration was applied for four days (in early experiments: 8 days). CD34+ cells were selected similarly but were first selected on day two after transduction.
Cell differentiation was induced by 0.5% dimethyl-formamide (DMF) in order to obtain granulocytes. In order to follow granulocyte differentiation, cells were labelled with monoclonal anti-CD11b/RPE antibody (Dako, Denmark), and staining was determined by flow cytometry. For the induction of differentiation in the case of normal CD34+ cells, both liquid suspension cultures and clonogenic progenitor assays were used. For suspension culture, fresh media, containing cytokines +G-CSF (50 ng/ml) were added to the cells 24 hours after transduction, and then the cells were incubated for 12-14 days at 37° C.

[8] = test system: mouse X-CGD KO -/- bone marrow cells; experiment: Flow cytometry of gp91phox expression in selected mouse bone marrow cells; type: cell-based; settings: 5 days selection on 5 nM or 10 nM MX; SPsAGS transduced BM cells
Description: (§7) Gp91^phox expression was measured by flow cytometry (Becton Dickinson FACS Calibur) by using the 7D5 antibody (provided by M. Nakamura (Nakamura et al., 1987) and phycoerythrin-labeled anti-mouse secondary antibody (GAM-PE, 250 times dilution, Sigma).
as §5

[9] = test system: human cord blood CD34+ cells; experiment: Colony-forming cell assay; type: cell-based; settings: 5 nM MX
Description: In the colony-forming cell assay the cells were plated at a concentration of 250 cells/ml and 1250 cells/ml in Iscove's medium, containing 0.9% methylcellulose, 30% FCS, 1% bovine serum albumin, 1.4×10^−5M dithiothreitol, 5 ng/ml human recombinant IL-3, 25 ng/ml SCF, 10 ng/ml GM-CSF, 2 ng/ml G-CSF and 2U/ml erythropoietin, in the presence or absence of 5 nM mitoxantrone. After 14 days of incubation at 37° C., the colony forming cells were counted.

[10] = test system: transduced PLB985 X-CGD cells; experiment: Flow cytometry of gp91phox expression after drug selection; type: cell-based, human; settings: 10 nM MX selection for four days; 40-48% before selection
Description: as §6, §7

[11] = test system: mouse X-CGD KO -/- bone marrow cells; experiment: Colony assay from mouse bone marrow cells; type: cell-based; settings: 5 nM or 10 nM MX in semisolid medium
Description: In the colony assay 10 000 cells were plated in semisolid medium containing 0, 5 and 10 nM MX.

T1 sequence (Q9UNQ0 whole entry R482G): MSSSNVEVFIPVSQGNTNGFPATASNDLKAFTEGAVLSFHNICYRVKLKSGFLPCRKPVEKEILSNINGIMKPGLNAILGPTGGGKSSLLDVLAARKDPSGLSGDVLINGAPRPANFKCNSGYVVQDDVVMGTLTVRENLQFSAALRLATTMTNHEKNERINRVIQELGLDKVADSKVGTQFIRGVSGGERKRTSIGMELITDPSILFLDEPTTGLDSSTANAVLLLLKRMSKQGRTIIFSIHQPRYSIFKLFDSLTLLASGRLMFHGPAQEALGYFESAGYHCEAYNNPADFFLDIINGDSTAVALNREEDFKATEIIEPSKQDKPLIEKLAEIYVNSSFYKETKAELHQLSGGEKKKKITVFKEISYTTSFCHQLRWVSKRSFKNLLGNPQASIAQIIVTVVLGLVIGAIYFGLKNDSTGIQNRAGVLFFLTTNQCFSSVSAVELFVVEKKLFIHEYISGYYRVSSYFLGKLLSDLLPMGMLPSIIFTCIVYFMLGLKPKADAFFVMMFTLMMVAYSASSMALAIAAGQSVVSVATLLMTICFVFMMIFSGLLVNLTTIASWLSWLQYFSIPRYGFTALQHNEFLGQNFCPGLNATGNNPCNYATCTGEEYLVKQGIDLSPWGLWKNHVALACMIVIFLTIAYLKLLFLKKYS
Sequence of ABCG2-R (Q9UNQ0 whole entry): as the sequence (Q9UNQ0 whole entry R482G) above, with G482R counted along it

Structure (SMILES) | IC50 at 4 days [1] [µg/mL] | IC50 at 4 days [2] [µg/mL] | IC50 at 4 days (ABCG2-G (R482G ABCG2)) [µg/mL] | effect on MX uptake [3] | reversal of MX extrusion (ABCG2-R) | reversal of MX extrusion (ABCG2-G [4]) | sensitivity of MX uptake to the inhibitor (ABCG2-G [5]) | survival of cells ([6]; 5 nM or more mitoxantron, non-transduced control BM cells) | transduced cells resistant to MX (surviving cells) ([6]; 5 or 10 nM mitoxantron, SPsAGS or SPsATS transduced, unselected BM cells) | level of CD15+ cells after selection ([7]; ABCG2-G transduced CD34+ cells) | fate of mock-transduced cells in suspension culture ([7]; mock-transduced CD34+ cells) | gp91phox-positive cells after selection [8] [%] | decrease of CFC number ([9]; ABCG2-G transduced CD34+ cells) | colony formation ([9]; mock-transduced CD34+ cells) | ratio of gp91phox-expressing cells after selection [10] | colony formation ([11]; ABCG2-G transduced BM cells) | decrease of CFC number ([11]; ABCG2-T transduced BM cells) | colony formation ([11]; non-transduced BM cells)
COc1cccc2c1C(=O)c1c(O)c3c(c(O)c1C2=O)C[C@@](O)(C(=O)CO)C[C@@H]3O[C@H]1C[C@H](N)[C@H](O)[C@H](C)O1 [ADR, doxorubicin] | ~0.02 (≈ 0.0368 µM) | ~0.008 (≈ 0.0147 µM) | ~0.25 (≈ 0.46 µM) | – | – | – | – | – | – | – | – | – | – | – | – | – | – | –
COc1ccc2c3c([nH]c2c1)[C@H](C=C(C)C)N1C(=O)[C@@H]2CCCN2C(=O)[C@@H]1C3 [FTC, Fumitremorgin C] | – | – | – | no effect | fully reversible | fully reversible | fully sensitive | – | – | – | – | – | – | – | – | – | – | –
O=C1c2c(O)ccc(O)c2C(=O)c2c(NCCNCCO)ccc(NCCNCCO)c21 [MX, mitoxantrone] | 0.03 (≈ 0.0675 µM) | ~0.01 (≈ 0.0225 µM) | 0.075 (≈ 0.169 µM) | – | – | – | – | all non-transduced control cells died | 15-20% | unchanged level of CD15+ cells | eliminated | > 80 | about 50% | did not form colonies | over 90% | hardly formed any | about 80% | did not form colonies
